Experimental data reported in patent US20040209859A1, “Fused cycloalkyl amides and acids and their therapeutic applications” (priority 2002, published 2004).

melting point | Compound
86 °C | CC1(C)[C@@H]2CC3[C@H](C(=O)O)[C@@]3(C)C[C@@H]21 (stereo partly drawn) (hydrate or solvate) [Example 1, (1S,3S,4S,7R)-3,8,8-trimethyltricyclo[5.1.0.0^3,5]octane-4-carboxylic acid]
121.5 to 122.5 °C | CC1(C)[C@@H]2CC3[C@H](C(N)=O)[C@@]3(C)C[C@@H]21 (stereo partly drawn) [Example 3, (1S,3S,4S,7R)-3,8,8-trimethyltricyclo[5.1.0.0^3,5]octane-4-carboxamide]
169.2 to 169.7 °C | CC1(C)[C@@H]2CC3[C@H](C(=O)NCC(N)=O)[C@@]3(C)C[C@@H]21 (stereo partly drawn) [Example 4, (1S,3S,4S,7R)-N-(2-amino-2-oxoethyl)-3,8,8-trimethyltricyclo [5.1.0.0^3,5]octane-4-carboxamide]
